In patent US12522597B2, “Methods and compositions for modulating splicing” (Skyhawk Therapeutics, Inc., priority 2019, dated 2026):

Columns and labels:
mHTT protein = mHTT protein assay (2B7-MW1, Mesoscale Discovery); type: cell-based, human; conditions: GM04724 (CAG 70/20) Huntington's disease patient lymphoblast cells, 48 hours, 2B7-MW1 MSD; read-out: HTT Potency - Protein EC50 mHTT (average)
Description: Compounds are tested on GM04724 (CAG 70/20) Huntington's disease patient lymphoblast cells at doses ranging from 10 μM to 0.6 nM. 4,500 cells/well are seeded in 384 well plates. One plate replica is carried out for parallel viability testing by CellTiter Glo (CTG). Compounds are incubated for 48 hours, mHTT protein levels are assessed by the 2B7-MW1 assay via Mesoscale Discovery (MSD) as previously reported (Macdonald et al., 2014). The antibody pair is comprised of previously characterized monoclonals (2B7 and MW1) interrogating two regions for HTT conformation and biological properties: the N17 domain and the polyQ domain (Baldo et al., 2012; Ko et., 2001). 2B7-MW1 is dependent on subject/animal specific levels of HTT at the time of treatment. 2B7-MW1 is dependent on polyQ expansion (e.g., the higher the expansion the higher the signal) and on mHTT size (e.g., a similar polyQ will give higher signal with smaller HTT size). The viability readout is carried out by CTG according to the manufacturer's instructions.

[1] = system: MDR1-MDCK cell monolayers; assay: MDCK-MDR1 permeability assay (BBB penetration potential); type: in vitro ADME; conditions: dog, MDCK-MDR1, 120 min, 5 μM, pH 7.4
Description: (§1) Each determination is performed in duplicate. […] Analytical conditions are outlined below.

MDR1 = assay: as above; type: in vitro ADME; conditions: dog; for efflux ratio at 120 min, 5 μM: MDCK-MDR1, pH 7.4, MDCK-MDR1: Efflux; for Papp A→B at 120 min, 5 μM: MDCK-MDR1, pH 7.4, MDCK-MDR1: Papp A-B; for Papp B→A at 120 min, 5 μM: MDCK-MDR1, pH 7.4, MDCK-MDR1: Papp B-A
Description: as §1

C[C@@]12CC[C@@](C)(N1)[C@@H](F)[C@@H](Oc1ccc(-c3ccc(C#N)cc3O)nn1)C2 (single isomer, unassigned) [152-ENT2]
EC50 (mHTT protein): 501 to 10000 nM | MDCK-MDR1: % Recov A-B [1]: 92% | MDCK-MDR1: % Recov B-A [1]: 100% | efflux ratio at 120 min, 5 μM (MDR1): 5 | Papp A→B at 120 min, 5 μM (MDR1): 10 ×10⁻⁶ cm/s | Papp B→A at 120 min, 5 μM (MDR1): 53 ×10⁻⁶ cm/s

O=c1cc(-c2ccc(-c3ccc(O[C@@H]4C[C@H]5CCC[C@H](N5)[C@@H]4F)nn3)c(O)c2)ccn1CF (single isomer, unassigned) [106-ENT1]
EC50 (mHTT protein): 101 to 500 nM | MDCK-MDR1: % Recov A-B [1]: 102% | MDCK-MDR1: % Recov B-A [1]: 90% | efflux ratio at 120 min, 5 μM (MDR1): 48 | Papp A→B at 120 min, 5 μM (MDR1): 1.07 ×10⁻⁶ cm/s | Papp B→A at 120 min, 5 μM (MDR1): 51 ×10⁻⁶ cm/s

CN(C)C(=O)c1cc2cc(O)c(-c3ccc(O[C@@H]4C[C@@]5(C)CCC[C@](C)(N5)[C@@H]4F)nn3)cc2o1 (single isomer, unassigned) [155-ENT1]
EC50 (mHTT protein): 501 to 10000 nM | MDCK-MDR1: % Recov A-B [1]: 90% | MDCK-MDR1: % Recov B-A [1]: 95% | efflux ratio at 120 min, 5 μM (MDR1): 16 | Papp A→B at 120 min, 5 μM (MDR1): 3.71 ×10⁻⁶ cm/s | Papp B→A at 120 min, 5 μM (MDR1): 59.4 ×10⁻⁶ cm/s

Cn1cc(-c2ccc(-c3ccc(O[C@H]4C[C@@H]5COC[C@@H](N5)[C@H]4F)nn3)c(O)c2)cn1 (single isomer, unassigned) [124-ENT2]
EC50 (mHTT protein): 501 to 10000 nM | MDCK-MDR1: % Recov A-B [1]: 86% | MDCK-MDR1: % Recov B-A [1]: 89% | efflux ratio at 120 min, 5 μM (MDR1): 3 | Papp A→B at 120 min, 5 μM (MDR1): 16.9 ×10⁻⁶ cm/s | Papp B→A at 120 min, 5 μM (MDR1): 43.5 ×10⁻⁶ cm/s

O=c1cc(-c2cc(O)c(-c3ccc(O[C@H]4C[C@@H]5CCC[C@@H](N5)[C@H]4F)nn3)cc2F)cc[nH]1 (single isomer, unassigned) [57-ENT2]
EC50 (mHTT protein): 101 to 500 nM | MDCK-MDR1: % Recov A-B [1]: 77% | MDCK-MDR1: % Recov B-A [1]: 87% | efflux ratio at 120 min, 5 μM (MDR1): 90 | Papp A→B at 120 min, 5 μM (MDR1): 0.35 ×10⁻⁶ cm/s | Papp B→A at 120 min, 5 μM (MDR1): 31.3 ×10⁻⁶ cm/s

CNC(=O)c1ccc2cc(-c3ccc(O[C@H]4C[C@]5(C)CCC[C@@](C)(N5)[C@H]4F)nn3)c(O)cc2n1 (single isomer, unassigned) [137-ENT1]
EC50 (mHTT protein): 0.01 to 15 nM | MDCK-MDR1: % Recov A-B [1]: 58% | MDCK-MDR1: % Recov B-A [1]: 70% | efflux ratio at 120 min, 5 μM (MDR1): 16 | Papp A→B at 120 min, 5 μM (MDR1): 2.56 ×10⁻⁶ cm/s | Papp B→A at 120 min, 5 μM (MDR1): 40.1 ×10⁻⁶ cm/s

Cc1nnc(-c2ccc(-c3ccc(O[C@@H]4C[C@H]5CCC[C@H](N5)[C@@H]4F)nn3)c(O)c2)o1 (single isomer, unassigned) [94-ENT1]
EC50 (mHTT protein): 101 to 500 nM | MDCK-MDR1: % Recov A-B [1]: 104% | MDCK-MDR1: % Recov B-A [1]: 70% | efflux ratio at 120 min, 5 μM (MDR1): 7 | Papp A→B at 120 min, 5 μM (MDR1): 6.2 ×10⁻⁶ cm/s | Papp B→A at 120 min, 5 μM (MDR1): 41.2 ×10⁻⁶ cm/s

N#Cc1ccc(-c2ccc(O[C@@H]3C[C@H]4CCC[C@H](N4)[C@@H]3F)nn2)c(O)c1 (single isomer, unassigned) [110-ENT1]
EC50 (mHTT protein): 501 to 10000 nM | MDCK-MDR1: % Recov A-B [1]: 101% | MDCK-MDR1: % Recov B-A [1]: 100% | efflux ratio at 120 min, 5 μM (MDR1): 13 | Papp A→B at 120 min, 5 μM (MDR1): 5.37 ×10⁻⁶ cm/s | Papp B→A at 120 min, 5 μM (MDR1): 68.2 ×10⁻⁶ cm/s

Oc1cc(-c2nnco2)c(F)cc1-c1ccc(O[C@@H]2C[C@H]3CCC[C@H](N3)[C@@H]2F)nn1 (single isomer, unassigned) [143-ENT2]
EC50 (mHTT protein): 51 to 100 nM | MDCK-MDR1: % Recov A-B [1]: 81% | MDCK-MDR1: % Recov B-A [1]: 87% | efflux ratio at 120 min, 5 μM (MDR1): 8 | Papp A→B at 120 min, 5 μM (MDR1): 6.91 ×10⁻⁶ cm/s | Papp B→A at 120 min, 5 μM (MDR1): 54.8 ×10⁻⁶ cm/s

Oc1cc(-n2ccnn2)ccc1-c1ccc(O[C@@H]2C[C@H]3CCC[C@H](N3)[C@@H]2F)nn1 (single isomer, unassigned) [69-ENT1]
EC50 (mHTT protein): 101 to 500 nM | MDCK-MDR1: % Recov A-B [1]: 89% | MDCK-MDR1: % Recov B-A [1]: 93% | efflux ratio at 120 min, 5 μM (MDR1): 5 | Papp A→B at 120 min, 5 μM (MDR1): 9.2 ×10⁻⁶ cm/s | Papp B→A at 120 min, 5 μM (MDR1): 47.6 ×10⁻⁶ cm/s

Cc1nocc1-c1ccc(-c2ccc(O[C@H]3C[C@@H]4CCC[C@@H](N4)[C@H]3F)nn2)c(O)c1 (single isomer, unassigned) [72-ENT2]
EC50 (mHTT protein): 101 to 500 nM | MDCK-MDR1: % Recov A-B [1]: 64% | MDCK-MDR1: % Recov B-A [1]: 74% | efflux ratio at 120 min, 5 μM (MDR1): 7 | Papp A→B at 120 min, 5 μM (MDR1): 4.67 ×10⁻⁶ cm/s | Papp B→A at 120 min, 5 μM (MDR1): 34.9 ×10⁻⁶ cm/s

Oc1cc(-c2nnco2)c(F)cc1-c1ccc(O[C@@H]2C[C@H]3CC[C@H](N3)[C@@H]2F)nn1 (stereo in doubt) [142-ENT1, 4-fluoro-2-(6-(((1S,2S,3R,5R)-2-fluoro-8-azabicyclo[3.2.1]octan-3-yl)oxy)pyridazin-3-yl)-5-(1,3,4-oxadiazol-2-yl)phenol]
EC50 (mHTT protein): 51 to 100 nM | MDCK-MDR1: % Recov A-B [1]: 98% | MDCK-MDR1: % Recov B-A [1]: 103% | efflux ratio at 120 min, 5 μM (MDR1): 6 | Papp A→B at 120 min, 5 μM (MDR1): 6.9 ×10⁻⁶ cm/s | Papp B→A at 120 min, 5 μM (MDR1): 41.8 ×10⁻⁶ cm/s

Oc1cc(-c2cnn3ccccc23)ccc1-c1ccc(O[C@@H]2C[C@H]3CCC[C@H](N3)[C@@H]2F)nn1 (single isomer, unassigned) [91-ENT1]
EC50 (mHTT protein): 101 to 500 nM | MDCK-MDR1: % Recov A-B [1]: 30% | MDCK-MDR1: % Recov B-A [1]: 57% | efflux ratio at 120 min, 5 μM (MDR1): 3 | Papp A→B at 120 min, 5 μM (MDR1): 4.52 ×10⁻⁶ cm/s | Papp B→A at 120 min, 5 μM (MDR1): 15.5 ×10⁻⁶ cm/s

O=c1cc(-c2ccc(-c3ccc(O[C@H]4C[C@@H]5CCC[C@@H](N5)[C@H]4F)nn3)c(O)c2)ccn1CF (single isomer, unassigned) [106-ENT2]
EC50 (mHTT protein): 51 to 100 nM | MDCK-MDR1: % Recov A-B [1]: 79% | MDCK-MDR1: % Recov B-A [1]: 80% | efflux ratio at 120 min, 5 μM (MDR1): 39 | Papp A→B at 120 min, 5 μM (MDR1): 1.45 ×10⁻⁶ cm/s | Papp B→A at 120 min, 5 μM (MDR1): 56.7 ×10⁻⁶ cm/s

Cn1ccc(-c2ccc(-c3ccc(O[C@@H]4C[C@H]5CCC[C@H](N5)[C@@H]4F)nn3)c(O)c2)nc1=O (single isomer, unassigned) [107-ENT1]
EC50 (mHTT protein): 101 to 500 nM | MDCK-MDR1: % Recov A-B [1]: 90% | MDCK-MDR1: % Recov B-A [1]: 90% | efflux ratio at 120 min, 5 μM (MDR1): 90 | Papp A→B at 120 min, 5 μM (MDR1): 0.11 ×10⁻⁶ cm/s | Papp B→A at 120 min, 5 μM (MDR1): 10 ×10⁻⁶ cm/s

O=c1cc(-c2cc(O)c(-c3ccc(O[C@@H]4C[C@H]5CCC[C@H](N5)[C@@H]4F)nn3)cc2F)cc[nH]1 (single isomer, unassigned) [57-ENT1]
EC50 (mHTT protein): 101 to 500 nM | MDCK-MDR1: % Recov A-B [1]: 94% | MDCK-MDR1: % Recov B-A [1]: 101% | efflux ratio at 120 min, 5 μM (MDR1): 73 | Papp A→B at 120 min, 5 μM (MDR1): 0.26 ×10⁻⁶ cm/s | Papp B→A at 120 min, 5 μM (MDR1): 18.9 ×10⁻⁶ cm/s

Cc1ccc(-c2ccc(-c3ccc(O[C@H]4C[C@@H]5CCC[C@@H](N5)[C@H]4F)nn3)c(O)c2)cn1 (single isomer, unassigned) [67-ENT2]
EC50 (mHTT protein): 101 to 500 nM | MDCK-MDR1: % Recov A-B [1]: 59% | MDCK-MDR1: % Recov B-A [1]: 76% | efflux ratio at 120 min, 5 μM (MDR1): 6 | Papp A→B at 120 min, 5 μM (MDR1): 3.34 ×10⁻⁶ cm/s | Papp B→A at 120 min, 5 μM (MDR1): 20.7 ×10⁻⁶ cm/s

Cn1ccc(=O)c2cc(O)c(-c3ccc(O[C@H]4C[C@]5(C)CCC[C@@](C)(N5)[C@H]4F)nn3)cc21 (single isomer, unassigned) [132-ENT1]
EC50 (mHTT protein): 101 to 500 nM | MDCK-MDR1: % Recov A-B [1]: 90% | MDCK-MDR1: % Recov B-A [1]: 95% | efflux ratio at 120 min, 5 μM (MDR1): 142 | Papp A→B at 120 min, 5 μM (MDR1): 0.1 ×10⁻⁶ cm/s | Papp B→A at 120 min, 5 μM (MDR1): 14.7 ×10⁻⁶ cm/s

Cc1ccc(-c2ccc(-c3ccc(O[C@@H]4C[C@H]5CCC[C@H](N5)[C@@H]4F)nn3)c(O)c2)cn1 (single isomer, unassigned) [67-ENT1]
EC50 (mHTT protein): 101 to 500 nM | MDCK-MDR1: % Recov A-B [1]: 44% | MDCK-MDR1: % Recov B-A [1]: 62% | efflux ratio at 120 min, 5 μM (MDR1): 7 | Papp A→B at 120 min, 5 μM (MDR1): 4.42 ×10⁻⁶ cm/s | Papp B→A at 120 min, 5 μM (MDR1): 29.8 ×10⁻⁶ cm/s

Cc1nocc1-c1ccc(-c2ccc(O[C@H]3C[C@@H]4CCC[C@@H](N4)[C@H]3F)nn2)c(O)c1 (single isomer, unassigned) [72-ENT1]
EC50 (mHTT protein): 101 to 500 nM | MDCK-MDR1: % Recov A-B [1]: 74% | MDCK-MDR1: % Recov B-A [1]: 93% | MDCK-MDR1: Efflux [1]: 9 | MDCK-MDR1: Papp A-B [1]: 5.74 10^−6, cm/s | MDCK-MDR1: Papp B-A [1]: 51 10^−6, cm/s
